This note sets out measurements from patent publication US12544375B2, “Small molecule therapeutic for parkinson's disease paired with a biomarker of therapeutic activity” (The Board of Trustees of the Leland Stanford Junior …, priority 2019, dated 2026).

One data set addresses T1, Miro1 (Homo sapiens, UniProt Q8IXI2).
T1 construct: We applied compound 3 to fibroblasts from one sporadic PD patient (PD-2); endogenous in cells; host or cells: human skin fibroblasts (PD-2, Healthy-1 and further PD/control lines)
Put plainly: Ubiquitination of immunoprecipitated Miro1 after CCCP 1 hr. Format: cell-based. The conditions noted are these: PD-2 fibroblasts, with or without Miro1 Reducer. On the procedure:
(§1) FIG. 8. Related to FIG. 2-4. Miro1 Reducer in Human Cell and Fly Models. (A) Fibroblasts from Healthy-1 and PD-2 were treated, lysed, and blotted as indicated. Band intensities are normalized to those of GAPDH from the same blots and compared to “Healthy-1, no treatment”. n=4 independent experiments. (B) Fibroblasts from PD-2 were treated and immunostained as indicated. The intensity was quantified for each cell across 264-320 cells from 3 independent experiments, compared to “no treatment”. (C) Fibroblasts were treated, immunoprecipitated (IPed) with anti-Miro1, and blotted as indicated. Similar results were observed twice. (D) Similar as in (C), fibroblasts were treated as indicated, and IPed with anti-Miro1. The GTPase activity of the IPed Miro1 protein was measured as described in Method. […] The MitoSox intensity was quantified for each cell across 106-161 cells from 3 coverslips. […] The TMRM intensity was measured for each cell across 48-60 cells from 3 independent experiments, and expressed as a fraction of the mean of “Healthy-1, no treatment”. […] The movement (the intensity of non-yellow) was quantified for each cell as described in (Tsai et al., 2014) across 22-31 cells from 3 transfections. […] (1) Left: The percentage of TH-positive iPSC-derived neurons out of total cells (Dapi-positive) is calculated after immunocytochemistry under 20× as described in FIG. 3. […]

In data set [1] the test system is healthy-1 or PD-2 fibroblasts. Put plainly: Baseline mitochondrial reactive oxygen species, MitoSox staining. Format: cell-based, human. The conditions noted are these: 10 μM for 30 hrs. The method, then: as §1

T1 sequence (Q8IXI2 whole entry): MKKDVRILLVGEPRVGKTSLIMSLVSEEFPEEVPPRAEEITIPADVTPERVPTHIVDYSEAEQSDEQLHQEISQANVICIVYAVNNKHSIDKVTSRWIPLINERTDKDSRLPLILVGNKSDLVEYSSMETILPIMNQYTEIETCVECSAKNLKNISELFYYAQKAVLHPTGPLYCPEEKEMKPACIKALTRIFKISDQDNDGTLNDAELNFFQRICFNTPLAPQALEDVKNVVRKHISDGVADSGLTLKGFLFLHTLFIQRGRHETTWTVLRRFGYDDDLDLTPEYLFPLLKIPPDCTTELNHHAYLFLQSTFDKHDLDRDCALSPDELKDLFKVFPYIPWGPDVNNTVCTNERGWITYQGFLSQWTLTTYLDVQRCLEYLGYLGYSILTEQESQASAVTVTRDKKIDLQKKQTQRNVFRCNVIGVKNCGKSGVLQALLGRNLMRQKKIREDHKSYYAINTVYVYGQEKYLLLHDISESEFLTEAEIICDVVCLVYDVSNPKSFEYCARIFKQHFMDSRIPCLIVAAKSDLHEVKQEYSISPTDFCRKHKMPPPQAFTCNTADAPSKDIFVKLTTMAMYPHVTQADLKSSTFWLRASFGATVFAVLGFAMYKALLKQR

On to `O=C(Nc1ccc(Nc2cc(-n3ccnc3)ncn2)cc1)Nc1cccc(F)c1` [Miro1 Reducer], for which the “depolarization-elicited increase of ubiquitination of IPed Miro1” value at Miro1 was “did not occur”. In addition, the “baseline mitochondrial reactive oxygen species levels (MitoSox)” value in data set [1] was “did not affect”.
